# Columns and labels:
# [1] = target: T1, Receptor-type tyrosine-protein phosphatase C (Homo sapiens, UniProt P08575); parameters: species or system Escherichia coli;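 note: inhibition of CD45 enzyme activity measured using DiFMUP as substrate; in other assays of this panel Not Active means under 50% inhibition at 10 µM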
# T1 sequence (P08575 whole entry): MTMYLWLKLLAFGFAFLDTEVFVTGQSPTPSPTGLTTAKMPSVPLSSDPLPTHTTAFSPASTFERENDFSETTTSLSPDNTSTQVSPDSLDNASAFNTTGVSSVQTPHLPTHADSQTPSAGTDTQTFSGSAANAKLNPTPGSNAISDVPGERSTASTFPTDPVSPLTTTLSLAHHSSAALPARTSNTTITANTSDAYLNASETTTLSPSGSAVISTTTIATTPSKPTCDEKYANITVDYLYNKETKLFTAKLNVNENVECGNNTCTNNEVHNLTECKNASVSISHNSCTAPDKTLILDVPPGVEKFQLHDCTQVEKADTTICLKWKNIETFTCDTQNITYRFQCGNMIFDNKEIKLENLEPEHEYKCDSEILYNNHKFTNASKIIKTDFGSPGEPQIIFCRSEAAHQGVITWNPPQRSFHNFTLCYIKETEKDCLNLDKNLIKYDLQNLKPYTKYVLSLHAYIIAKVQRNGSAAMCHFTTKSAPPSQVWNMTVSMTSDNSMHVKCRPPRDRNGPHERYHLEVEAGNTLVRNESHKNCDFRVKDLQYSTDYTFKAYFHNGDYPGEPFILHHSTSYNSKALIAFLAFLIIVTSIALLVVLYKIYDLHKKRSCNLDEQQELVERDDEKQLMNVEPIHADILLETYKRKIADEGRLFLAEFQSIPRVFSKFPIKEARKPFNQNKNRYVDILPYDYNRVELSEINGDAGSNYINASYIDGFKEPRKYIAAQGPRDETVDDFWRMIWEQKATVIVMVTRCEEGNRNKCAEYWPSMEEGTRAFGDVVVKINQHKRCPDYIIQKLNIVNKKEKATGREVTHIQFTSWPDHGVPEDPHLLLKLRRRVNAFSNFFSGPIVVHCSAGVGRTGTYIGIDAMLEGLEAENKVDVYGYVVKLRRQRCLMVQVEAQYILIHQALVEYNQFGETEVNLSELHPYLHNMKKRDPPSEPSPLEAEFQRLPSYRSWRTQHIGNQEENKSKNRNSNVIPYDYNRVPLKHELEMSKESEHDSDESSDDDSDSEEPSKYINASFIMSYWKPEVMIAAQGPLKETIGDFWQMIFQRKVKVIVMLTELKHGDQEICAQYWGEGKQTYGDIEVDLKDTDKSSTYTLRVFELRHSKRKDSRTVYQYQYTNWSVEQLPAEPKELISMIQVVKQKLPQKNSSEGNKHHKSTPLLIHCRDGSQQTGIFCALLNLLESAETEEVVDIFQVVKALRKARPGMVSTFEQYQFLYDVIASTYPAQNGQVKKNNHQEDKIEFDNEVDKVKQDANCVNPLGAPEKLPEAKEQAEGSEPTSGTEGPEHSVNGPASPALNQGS
# Calcitonin receptor = target: T2, Calcitonin receptor (Homo sapiens, UniProt P30988); assay type: cell membranes, Membrane; conditions: t47d; note: in other assays of this panel Not Active means under 50% inhibition at 10 µM
# T2 sequence (P30988 whole entry): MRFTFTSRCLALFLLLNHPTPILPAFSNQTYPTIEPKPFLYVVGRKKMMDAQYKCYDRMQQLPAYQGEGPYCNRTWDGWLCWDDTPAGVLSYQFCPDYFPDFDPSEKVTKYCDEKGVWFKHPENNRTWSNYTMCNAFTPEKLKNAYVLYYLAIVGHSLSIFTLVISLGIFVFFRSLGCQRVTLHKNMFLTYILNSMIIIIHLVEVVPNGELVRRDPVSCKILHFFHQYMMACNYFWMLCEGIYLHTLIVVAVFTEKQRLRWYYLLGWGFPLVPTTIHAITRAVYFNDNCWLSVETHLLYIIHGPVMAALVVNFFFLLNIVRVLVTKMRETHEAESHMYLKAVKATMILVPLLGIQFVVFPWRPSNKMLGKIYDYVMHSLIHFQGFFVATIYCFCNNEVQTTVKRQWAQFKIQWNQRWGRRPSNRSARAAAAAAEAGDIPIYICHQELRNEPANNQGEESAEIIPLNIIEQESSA
# [2] = target: T3, Alpha-1D adrenergic receptor (Homo sapiens, UniProt P25100); assay type: cell membranes, HEK293, Membrane; note: in other assays of this panel Not Active means under 50% inhibition at 10 µM
# T3 sequence (P25100 whole entry): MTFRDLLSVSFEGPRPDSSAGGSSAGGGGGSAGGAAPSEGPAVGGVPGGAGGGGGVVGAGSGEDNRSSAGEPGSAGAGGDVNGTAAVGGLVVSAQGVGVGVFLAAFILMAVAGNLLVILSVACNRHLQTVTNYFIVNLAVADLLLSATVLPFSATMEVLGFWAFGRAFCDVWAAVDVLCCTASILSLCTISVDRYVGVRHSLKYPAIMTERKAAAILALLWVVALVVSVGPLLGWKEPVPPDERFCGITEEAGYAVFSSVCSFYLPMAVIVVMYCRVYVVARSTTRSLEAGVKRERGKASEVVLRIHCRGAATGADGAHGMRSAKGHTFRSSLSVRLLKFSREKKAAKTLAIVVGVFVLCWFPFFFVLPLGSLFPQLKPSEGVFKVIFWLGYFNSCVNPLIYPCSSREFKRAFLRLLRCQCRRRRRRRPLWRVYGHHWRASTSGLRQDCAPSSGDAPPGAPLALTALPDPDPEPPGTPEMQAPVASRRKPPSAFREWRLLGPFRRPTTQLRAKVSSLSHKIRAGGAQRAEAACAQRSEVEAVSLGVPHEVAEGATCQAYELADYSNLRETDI
# Leukotriene C4 synthase = target: T4, Leukotriene C4 synthase (Cavia porcellus, UniProt A6XA80); assay type: tissue-based, Lung;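 note: enzyme inhibition assay of leukotriene C4 synthase, using LTA4 as the substrate; in other assays of this panel Not Active means under 50% inhibition at 10 µM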
# T4 sequence (A6XA80 whole entry): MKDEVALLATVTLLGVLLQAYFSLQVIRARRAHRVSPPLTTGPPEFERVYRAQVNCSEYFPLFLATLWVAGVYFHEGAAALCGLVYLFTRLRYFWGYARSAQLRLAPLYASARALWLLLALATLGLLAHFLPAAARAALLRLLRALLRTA
# [3] = DRUGMATRIX: Sodium/nucleoside co-transporter radioligand binding (ligand: nitrobenzylthioinosine); assay type: cell membranes, Cavia porcellus, Dunkin-Hartley, Cerebral cortex, Membrane; conditions: Not Active = under 50% inhibition at 10 µM
# [4] = DRUGMATRIX: Glutamate, AMPA radioligand binding (ligand: [3H] AMPA); assay type: cell membranes, Rattus norvegicus, Wistar, Cerebral cortex, Membrane; conditions: Not Active = under 50% inhibition at 10 µM
# Substance-P receptor = Substance-P receptor (Homo sapiens, UniProt P25103); assay type: cell membranes, CHO, Membrane; conditions: cho; note: in other assays of this panel Not Active means under 50% inhibition at 10 µM
# [5] = DRUGMATRIX: Phorbol Ester radioligand binding (ligand: [3H] PDBu); assay type: cell membranes, Mus musculus, ICR, Brain, Membrane; conditions: Not Active = under 50% inhibition at 10 µM
# Sequence of Substance-P receptor (P25103 whole entry): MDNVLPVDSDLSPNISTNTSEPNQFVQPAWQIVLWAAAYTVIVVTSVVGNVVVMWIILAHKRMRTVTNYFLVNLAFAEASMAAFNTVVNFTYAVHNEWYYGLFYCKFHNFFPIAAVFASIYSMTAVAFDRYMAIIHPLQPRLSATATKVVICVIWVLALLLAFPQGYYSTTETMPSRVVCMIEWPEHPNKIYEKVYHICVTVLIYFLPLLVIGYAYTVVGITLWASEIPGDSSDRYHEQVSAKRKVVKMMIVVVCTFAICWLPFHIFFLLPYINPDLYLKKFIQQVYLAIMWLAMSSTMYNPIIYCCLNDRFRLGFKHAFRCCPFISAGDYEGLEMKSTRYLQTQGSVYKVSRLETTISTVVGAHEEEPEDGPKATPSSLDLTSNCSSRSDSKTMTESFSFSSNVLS
SMILES,IC50 [1],IC50 (Calcitonin receptor),IC50 ([2]; hek293),IC50 (Leukotriene C4 synthase),IC50 [3],Ki [3],IC50 [4],Ki [4],IC50 (Substance-P receptor),IC50 [5],Ki [5],IC50 ([2]; read-out: IC50) [nM],Ki ([2]; read-out: Ki) [nM]
CC(C(=O)O)c1ccc2oc(-c3ccc(Cl)cc3)nc2c1 (stereo not drawn) [BENOXAPROFEN],Not Active,Not Active,Not Active,Not Active,Not Active,Not Active,Not Active,Not Active,Not Active,Not Active,Not Active,,
COc1ccc2cc3[n+](cc2c1OC)CCc1cc2c(cc1-3)OCO2.[Cl-] [BERBERINE CHLORIDE],Not Active,Not Active,Not Active,Not Active,Not Active,Not Active,Not Active,Not Active,Not Active,Not Active,Not Active,,
O=C(O)CCNC(=O)c1ccccc1 [BETAMIPRON],Not Active,Not Active,Not Active,Not Active,Not Active,Not Active,Not Active,Not Active,Not Active,Not Active,Not Active,,
CC(=O)Oc1ccc(C(c2ccc(OC(C)=O)cc2)c2ccccn2)cc1 [BISACODYL],Not Active,Not Active,Not Active,Not Active,Not Active,Not Active,Not Active,Not Active,Not Active,Not Active,Not Active,,
Cc1cc2c(OCC(CNC(C)(C)C)OC(=O)c3ccccc3)cccc2[nH]1 (stereo not drawn) [BOPINDOLOL],Not Active,Not Active,Not Active,Not Active,Not Active,Not Active,Not Active,Not Active,Not Active,Not Active,Not Active,,
Brc1c(NC2=NCCN2)ccc2nccnc12 [BRIMONIDINE],Not Active,Not Active,,Not Active,Not Active,Not Active,Not Active,Not Active,Not Active,Not Active,Not Active,1720,846
CN(C)[C@@H]1C(O)=C(C(N)=O)C(=O)[C@@]2(O)C(O)=C3C(=O)c4c(O)ccc(Cl)c4[C@@](C)(O)[C@H]3C[C@@H]12 [CHLORTETRACYCLINE],Not Active,Not Active,Not Active,Not Active,Not Active,Not Active,Not Active,Not Active,Not Active,Not Active,Not Active,,
